# Results as given in patent EP0428423A2, “Aryloxy alkyl benzenes, processes for their preparation and pharmaceutical compositions containing them” (LIPHA S.A., priority 1989, dated 1991).
# Tests used:
# [1] = test system: plasmas riches en plaquettes provenant de sang de rat; test: Platelet anti-aggregation in vitro, ADP-induced (Born aggregometer); type: cell-based; settings: in vitro, aggregating agent ADP, rat platelet-rich plasma, 37°; M not defined in the text; mM printed only in the TICLOPIDINE line; read-out: M à 50
# Protocol: Les études ont été réalisées sur des plasmas riches en plaquettes provenant de sang de rat, l'agrégation étant induite par addition d'acide Adénosine diphosphorique. Les courbes néphélométriques d'agrégation sont obtenues en utilisant un agrégomètre de type BORN, le plasma étant placé en incubation à 37° avec agitation continue de 1100 t/mn (cf. BORN G.V.R et CROSS J. - J. Physiol. 168 (1962) 178.
# RAT = test: Diuretic activity in the rat (hourly urine volume, sodium and potassium assay); type: in vivo; settings: po; R = RAT; diuretic activity; read-out: Dose minimale active
# Description: (§1) d'urine sont déterminés toutes les heures. Le dosage de sodium et du potassium est effectué par spectrophotométrie.
# SOURIS = test: Diuretic activity in the mouse (hourly urine volume, sodium and potassium assay); type: in vivo; settings: S = SOURIS; for minimal effective dose: Mus musculus, po, diuretic activity, read-out: Dose minimale active
# Description: as §1
# ECHANGEUR D'ANIONS = target: T1, ECHANGEUR D'ANIONS (Homo sapiens, UniProt P02730); test: Anion exchanger of human erythrocytes; type: cell-based, ERYTHROCYTES HUMAINS; settings: read-out: EFFET SUR L'ECHANGEUR D'ANIONS IC 50
# T1 construct: systèmes de transport du sodium et du potassium des érythrocytes humains; endogenous in cells; host or cells: human erythrocytes
# T1 sequence (P02730 1-911): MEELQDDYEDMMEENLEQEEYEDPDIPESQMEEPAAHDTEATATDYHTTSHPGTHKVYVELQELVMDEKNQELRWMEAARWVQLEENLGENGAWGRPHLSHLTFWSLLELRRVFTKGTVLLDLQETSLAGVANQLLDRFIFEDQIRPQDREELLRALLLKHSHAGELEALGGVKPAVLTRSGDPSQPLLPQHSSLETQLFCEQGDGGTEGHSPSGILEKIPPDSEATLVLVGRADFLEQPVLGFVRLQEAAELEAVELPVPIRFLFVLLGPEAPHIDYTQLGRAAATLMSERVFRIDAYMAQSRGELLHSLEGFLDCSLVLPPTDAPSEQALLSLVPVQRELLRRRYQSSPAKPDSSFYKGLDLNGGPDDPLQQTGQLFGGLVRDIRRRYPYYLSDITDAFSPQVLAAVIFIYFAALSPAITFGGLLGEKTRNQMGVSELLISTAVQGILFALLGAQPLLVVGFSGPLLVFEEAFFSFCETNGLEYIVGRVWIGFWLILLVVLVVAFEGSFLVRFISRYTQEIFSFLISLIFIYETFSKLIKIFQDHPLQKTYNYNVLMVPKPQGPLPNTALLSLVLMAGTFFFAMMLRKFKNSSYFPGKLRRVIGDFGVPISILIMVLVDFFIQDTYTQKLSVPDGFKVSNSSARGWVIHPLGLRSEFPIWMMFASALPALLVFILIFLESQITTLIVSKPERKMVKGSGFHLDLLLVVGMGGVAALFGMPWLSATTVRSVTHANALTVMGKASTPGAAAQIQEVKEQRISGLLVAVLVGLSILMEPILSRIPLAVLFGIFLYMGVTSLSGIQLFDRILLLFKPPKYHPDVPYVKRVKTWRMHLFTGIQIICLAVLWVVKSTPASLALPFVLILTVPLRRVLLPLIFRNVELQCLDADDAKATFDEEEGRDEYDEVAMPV
# Description: Cet effet a été étudié selon la méthodologie décrite par G. GARAY et coll. dans Naunyn-Schmidberg's Arch. Pharmakol. 334 (1986) 202-209 et dans Bioch. Pharm. 33 (1984) 2013-2020.
# COTRANSPORT Na-K = target: T2, COTRANSPORT Na-K (Homo sapiens, UniProt P55011); test: Na-K cotransport of human erythrocytes; type: cell-based, ERYTHROCYTES HUMAINS; settings: human erythrocytes; read-out: EFFET SUR LE COTRANSPORT Na-K IC 50
# T2 construct: systèmes de transport du sodium et du potassium des érythrocytes humains; endogenous in cells; host or cells: human erythrocytes
# T2 sequence (P55011 1-1212): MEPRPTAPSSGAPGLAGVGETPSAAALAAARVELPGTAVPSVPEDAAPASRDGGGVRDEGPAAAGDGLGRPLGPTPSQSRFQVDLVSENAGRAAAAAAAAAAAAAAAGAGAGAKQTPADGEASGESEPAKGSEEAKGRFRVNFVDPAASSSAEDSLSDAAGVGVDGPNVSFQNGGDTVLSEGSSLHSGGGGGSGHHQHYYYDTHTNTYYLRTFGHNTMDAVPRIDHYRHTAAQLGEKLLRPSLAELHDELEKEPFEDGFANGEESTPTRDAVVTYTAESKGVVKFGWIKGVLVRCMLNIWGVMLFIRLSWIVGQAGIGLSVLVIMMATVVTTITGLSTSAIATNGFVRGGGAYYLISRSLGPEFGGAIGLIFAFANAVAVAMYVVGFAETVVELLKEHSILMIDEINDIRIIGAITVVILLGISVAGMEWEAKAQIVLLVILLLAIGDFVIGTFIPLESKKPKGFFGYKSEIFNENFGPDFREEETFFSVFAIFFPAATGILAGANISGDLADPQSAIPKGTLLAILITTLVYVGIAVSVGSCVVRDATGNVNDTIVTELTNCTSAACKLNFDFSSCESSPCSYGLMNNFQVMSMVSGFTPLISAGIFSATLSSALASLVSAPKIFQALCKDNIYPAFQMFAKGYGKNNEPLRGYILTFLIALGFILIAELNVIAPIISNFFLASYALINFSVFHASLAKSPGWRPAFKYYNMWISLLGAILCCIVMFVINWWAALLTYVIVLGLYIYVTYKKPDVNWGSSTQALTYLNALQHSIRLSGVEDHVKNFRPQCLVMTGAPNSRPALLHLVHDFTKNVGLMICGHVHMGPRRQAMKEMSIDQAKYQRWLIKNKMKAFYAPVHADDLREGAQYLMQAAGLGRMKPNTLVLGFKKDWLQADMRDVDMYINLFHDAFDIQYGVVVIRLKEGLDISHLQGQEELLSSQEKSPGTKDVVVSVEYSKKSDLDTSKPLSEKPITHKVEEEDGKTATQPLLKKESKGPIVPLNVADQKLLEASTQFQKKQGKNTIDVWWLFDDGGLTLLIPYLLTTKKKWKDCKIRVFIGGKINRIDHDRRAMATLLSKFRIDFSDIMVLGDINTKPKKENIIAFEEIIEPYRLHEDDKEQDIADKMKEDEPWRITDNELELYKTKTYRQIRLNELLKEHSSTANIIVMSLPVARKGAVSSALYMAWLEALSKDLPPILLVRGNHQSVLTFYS
# Description: Cet effet a été étudié selon la méthodologie décrite par G. GARAY et coll. dans Naunyn-Schmidberg's Arch. Pharmakol. […] Pharm.
# [2] = test system: rats mâles SHR (souche OKAMOTO); test: Antihypertensive action in the non-anaesthetised SHR rat (systolic blood pressure, sphygmomanometric method); type: in vivo; settings: 60 mg/kg PO, acute or chronic not given, 24 h after dosing
# Description: L'étude a été effectuée sur des lots de rats mâles SHR (souche OKAMOTO) âgés de 16 semaines. La pression artérielle systolique est déterminée par la méthode sphygmomanométrique (électro sphygmogra- phe NARCO biosystems type PE 300). Les mesures de tension sont réalisées 24 heures après administration d'un composé de formule générale I, la pression artérielle systolique est calculée à partir de la moyenne de 6 à 8 mesures.
# [3] = PO, at the dose (minimal active dose)
Compound,IC50 [1] [mM],minimal effective dose (RAT) [mg/kg],minimal effective dose (SOURIS) [mg/kg],other results
CC(=O)NCCCCCC(=O)Oc1ccccc1CCOc1ccc(F)cc1 [ex 139],,25,25,
"Cc1cccc(C)c1NC(=O)c1cc(S(N)(=O)=O)c(Cl)cc1O [XIPAMIDE, reference compound]",,,,IC50 (ECHANGEUR D'ANIONS): 25 µM
COc1ccc(OC(C)=O)c(CCOc2ccc(F)cc2)c1 [ex 25],,12,25,IC50 (COTRANSPORT Na-K): > 600 µM; IC50 (ECHANGEUR D'ANIONS): 120 µM
Oc1ccc2ccccc2c1CCOc1ccc(F)cc1 [ex 48],,25,100,
Oc1cc2c(cc1CCOc1ccc(F)cc1)OCCO2 [ex 107],,25,100,
NS(=O)(=O)c1cc2c(cc1Cl)NCNS2(=O)=O [HYDROCHLOROTHIAZIDE],,,,Variation de l'effet anti-hyper-tenseur 24 heures après produit [2]: FUROSEMIDE non actif HYDROCHLOROTHIAZIDE non actif
"NS(=O)(=O)c1cc(C(=O)O)c(NCc2ccco2)cc1Cl [FUROSEMIDE, reference compound]",,12,25,Variation de l'effet anti-hyper-tenseur 24 heures après produit [2]: FUROSEMIDE non actif HYDROCHLOROTHIAZIDE non actif
NC(=O)c1ccc(O)c(CCOc2ccc(F)cc2)c1 [ex 163],,6,25,

# The next lines start with results.
IC50 [1] [mM],Compound,minimal effective dose (RAT) [mg/kg],minimal effective dose (SOURIS) [mg/kg],other results
0.6,Oc1ccccc1CCOc1cccc2ccccc12 [Ex 58],,,
0.7,Oc1ccc(O)c(CCOc2ccc(F)cc2)c1 [Ex 102],,,
1,CC(=O)Oc1c(CCOc2ccc(F)cc2)cccc1C(C)C [Ex 81],,,
0.7,Cc1ccc(CCOc2ccc(F)cc2)c(O)c1C [Ex 78],,,
0.5,C=CCOc1ccc(CCOc2ccccc2)c(O)c1 [Ex 64],,,
0.95,CC(COc1ccc(F)cc1)c1ccccc1O (stereo not drawn) [ex 172],25,100,IC50 (COTRANSPORT Na-K): ~400 µM; IC50 (ECHANGEUR D'ANIONS): 75 µM
1.2,Oc1ccc(O)c(CCOc2ccccc2)c1 [ex 42],12,,IC50 (COTRANSPORT Na-K): 40 µM; Pouvoir diurétique en % (SOURIS; [3]): Inactif; Rapport Na/K en % (SOURIS; [3]): Inactif; IC50 (ECHANGEUR D'ANIONS): 12 µM
